Reference: article PMC7366380, “Discovery of a Potent and Selective Covalent Inhibitor and Activity-Based Probe for the Deubiquitylating Enzyme UCHL1, with Antifibrotic Activity” (Journal of the American Chemical Society, 2020)
Where “and” joins values, the source holds several entries; their conditions need not be identical. Equal values may be shown once. Blank lines part the entries; values can stand above or below the molecule they belong to.

Experiments:
USP21 = target: T1, USP21 (Homo sapiens, UniProt Q9UK80); test: biochemical
T1 sequence (Q9UK80 1-565): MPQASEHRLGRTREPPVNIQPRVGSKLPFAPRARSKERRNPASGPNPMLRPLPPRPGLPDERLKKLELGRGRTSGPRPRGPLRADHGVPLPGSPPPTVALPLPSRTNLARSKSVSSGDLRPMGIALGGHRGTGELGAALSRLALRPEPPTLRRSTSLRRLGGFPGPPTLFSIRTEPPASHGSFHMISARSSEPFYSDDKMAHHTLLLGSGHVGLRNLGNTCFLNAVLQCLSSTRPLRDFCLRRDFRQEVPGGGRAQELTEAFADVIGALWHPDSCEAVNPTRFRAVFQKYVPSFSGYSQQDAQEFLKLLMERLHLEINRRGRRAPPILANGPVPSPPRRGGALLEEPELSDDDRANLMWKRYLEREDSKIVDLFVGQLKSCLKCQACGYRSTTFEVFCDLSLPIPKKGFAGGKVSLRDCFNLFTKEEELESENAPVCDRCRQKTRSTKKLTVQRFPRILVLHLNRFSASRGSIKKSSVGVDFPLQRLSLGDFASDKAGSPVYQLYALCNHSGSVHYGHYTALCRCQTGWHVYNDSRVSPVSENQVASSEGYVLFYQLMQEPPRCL

BAP1 = target: T2, BAP1 (Homo sapiens, UniProt Q92560); test: biochemical
T2 sequence (Q92560 1-729): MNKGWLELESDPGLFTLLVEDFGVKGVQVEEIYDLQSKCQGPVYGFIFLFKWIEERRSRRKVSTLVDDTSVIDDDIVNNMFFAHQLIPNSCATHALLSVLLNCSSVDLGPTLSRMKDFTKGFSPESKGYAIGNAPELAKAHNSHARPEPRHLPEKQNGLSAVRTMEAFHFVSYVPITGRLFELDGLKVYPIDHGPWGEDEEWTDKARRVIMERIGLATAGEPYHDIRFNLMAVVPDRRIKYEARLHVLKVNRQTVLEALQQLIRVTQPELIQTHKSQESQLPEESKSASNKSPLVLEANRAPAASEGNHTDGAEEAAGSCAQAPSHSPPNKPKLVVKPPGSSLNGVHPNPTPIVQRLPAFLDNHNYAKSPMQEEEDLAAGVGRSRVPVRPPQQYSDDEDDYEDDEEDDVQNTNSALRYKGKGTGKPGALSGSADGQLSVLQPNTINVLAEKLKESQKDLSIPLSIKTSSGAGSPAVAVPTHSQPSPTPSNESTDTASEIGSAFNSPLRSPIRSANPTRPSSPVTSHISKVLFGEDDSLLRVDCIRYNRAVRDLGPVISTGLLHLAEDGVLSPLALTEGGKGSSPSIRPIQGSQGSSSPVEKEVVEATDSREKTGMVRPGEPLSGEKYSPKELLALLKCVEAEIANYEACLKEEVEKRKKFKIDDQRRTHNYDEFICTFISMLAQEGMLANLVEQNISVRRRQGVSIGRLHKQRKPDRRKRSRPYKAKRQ

OTUB2 = target: T3, OTUB2 (Homo sapiens, UniProt Q96DC9); test: biochemical
T3 sequence (Q96DC9 1-234): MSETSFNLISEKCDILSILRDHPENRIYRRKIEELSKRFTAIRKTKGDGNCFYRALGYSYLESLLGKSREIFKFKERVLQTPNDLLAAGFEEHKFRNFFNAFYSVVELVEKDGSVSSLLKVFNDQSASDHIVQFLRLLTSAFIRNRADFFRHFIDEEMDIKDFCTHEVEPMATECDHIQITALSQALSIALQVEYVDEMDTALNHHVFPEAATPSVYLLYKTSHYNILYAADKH

UCHL3 = target: T4, UCHL3 (Homo sapiens, UniProt P15374); test: In-cell proteome-wide competitive ABPP, HEK293: UCHL3; settings: for Log2 reporter intensity values: UCHL3: DMSO substract (FC); for Log2 reporter intensity values: UCHL3 / Log2 reporter intensity values: replicates A-C; for Log2 reporter intensity values: UCHL3, DMSO subtracted
T4 sequence (P15374 1-230): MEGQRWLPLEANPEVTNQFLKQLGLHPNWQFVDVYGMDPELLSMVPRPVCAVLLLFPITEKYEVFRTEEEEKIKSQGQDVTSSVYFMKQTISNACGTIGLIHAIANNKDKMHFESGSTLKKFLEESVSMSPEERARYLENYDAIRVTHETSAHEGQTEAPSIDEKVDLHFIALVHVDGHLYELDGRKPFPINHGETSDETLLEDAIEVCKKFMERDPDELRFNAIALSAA

FLAG-UCHL1 = target: T5, FLAG-UCHL1 (Homo sapiens, UniProt P09936); test: HTRF in-cell UCHL1 activity assay with HA-Ub-VME in Cal51 cells; format: cell-based; settings: Cal51 cells stably expressing FLAG-UCHL1, 1 h, HA-Ub-VME 100 nM
T5 construct: expressed in transfected cells
T5 sequence (P09936 1-223): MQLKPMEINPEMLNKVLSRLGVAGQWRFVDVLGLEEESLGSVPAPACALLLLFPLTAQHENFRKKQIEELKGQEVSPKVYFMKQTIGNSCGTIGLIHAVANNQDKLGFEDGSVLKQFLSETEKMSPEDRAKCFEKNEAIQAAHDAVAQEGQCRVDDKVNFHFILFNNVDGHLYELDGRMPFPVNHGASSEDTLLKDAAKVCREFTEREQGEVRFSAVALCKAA

Structure (SMILES): CC(=O)O/N=C1\C(=O)N(Cc2cc(Cl)ccc2Cl)c2ccc(Cl)cc21 [LDN-57444, reference compound]
IC50 (USP21): > 10 µM
IC50 (BAP1): > 10 µM
IC50 (OTUB2): > 10 µM

Structure (SMILES): CC(=O)O/N=C1\C(=O)N(Cc2cc(Cl)ccc2Cl)c2ccc(Cl)cc21 [LDN]
Log2 reporter intensity values: UCHL3 (UCHL3; LDN at 5 μM, competition with ABP 2): 1.511 and 1.383 and 1.619
Log2 reporter intensity values: UCHL3 (UCHL3; LDN at 25 μM, competition with ABP 2): 1.505 and 1.419 and 1.696
Log2 reporter intensity values (UCHL3; LDN at 5 μM): 0.5958 and 0.4677 and 0.6949
Log2 reporter intensity values (UCHL3; LDN at 25 μM): 0.5899 and 0.5052 and 0.7625
Log2 reporter intensity values (UCHL3; LDN_5 μM): 0.5031 and 0.3746 and 0.6105
Log2 reporter intensity values (UCHL3; LDN_25 μM): 0.4969 and 0.4111 and 0.6882

IC50 (FLAG-UCHL1): 23 µM
IC50 (USP21): > 10 µM
IC50 (BAP1): > 10 µM
IC50 (OTUB2): > 10 µM
Log2 reporter intensity values: UCHL3 (UCHL3; 3 at 1 μM, competition with ABP 2): 1.501 and 1.531 and 1.889
Log2 reporter intensity values: UCHL3 (UCHL3; 3 at 4 μM, competition with ABP 2): 1.509 and 1.358 and 1.681
Log2 reporter intensity values (UCHL3; 3_1 μM): 0.4924 and 0.5226 and 0.8806
Log2 reporter intensity values (UCHL3; 3_4 μM): 0.5004 and 0.3501 and 0.6732
Log2 reporter intensity values (UCHL3; 3 at 1 μM): 0.5856 and 0.6143 and 0.9175
Log2 reporter intensity values (UCHL3; 3 at 4 μM): 0.5932 and 0.4418 and 0.7497
Structure (SMILES): N#CN1CCC[C@@H]1C(=O)N1CCc2c(-c3c[nH]c4ncccc34)cccc21 [Compound 3]

IC50 (FLAG-UCHL1): 0.82 µM
IC50 (USP21): > 10 µM
IC50 (BAP1): 1 to 10 µM
IC50 (OTUB2): > 10 µM
Log2 reporter intensity values: UCHL3 (UCHL3; 1 at 1 μM, competition with ABP 2): 0.8904 and 1.311 and 0.2787
Log2 reporter intensity values: UCHL3 (UCHL3; 1 at 4 μM, competition with ABP 2): 0.7742 and 0.7243 and 0.9234
UCHL3 response in proteome-wide competitive ABPP (UCHL3; HEK293, compound 60 min, then 2 (20 nM) 10 min): small response
Log2 reporter intensity values (UCHL3; 1_1 μM): -0.1178 and 0.3024 and -0.7296
Log2 reporter intensity values (UCHL3; 1_4 μM): -0.234 and -0.284 and -0.08483
Log2 reporter intensity values (UCHL3; 1 at 1 μM): -0.1675 and 0.3902 and -1.8434
Log2 reporter intensity values (UCHL3; 1 at 4 μM): -0.3692 and -0.4654 and -0.115
Structure (SMILES): N#CN1CCC[C@H]1C(=O)N1CCc2c(-c3c[nH]c4ncccc34)cccc21 [Compound 1]

IC50 (FLAG-UCHL1): 0.11 µM
Log2 reporter intensity values: UCHL3 (UCHL3; 20 nM ABP 2 alone): 2.007 and 1.656 and 1.566
Structure (SMILES): C#Cc1cnc2[nH]cc(-c3cccc4c3CCN4C(=O)[C@@H]3CCCN3C#N)c2c1 [Compound 2]
Log2 reporter intensity values (UCHL3; 20 nM ABP 2): 1.005 and 0.7277 and 0.6472 and 0.9988 and 0.6478 and 0.5579
